One experiment relates to SLC19A1. As to the kind of experiment: Suppression of the c-MYC downstream target gene SLC19A1, RT-PCR in HeLa cells. The experiment is classed as cell-based, Human. The following applies: 24 h, 10 μM, single agent. The method, then:
The suppression of the expression of the downstream c-MYC target, SLC19A1, was measured by RT-PCR using Power SYBR® Green Cells-to-Ct™ Kit (Life Technologies). Adherent cells were plated on 96 well plates at 5,000 cells per well were treated for 24 h with monomer compounds and compounds capable of reversible interactions (1 nM-100 μM). Cells were subsequently washed in ice-cold PBS processed according to the manufacturer's instructions. Quantitative real-time PCR was performed using a ViiA™ 7 Real-time PCR System (Applied Biosystems, Foster City, CA, USA). GAPDH and ACTB served as internal controls. The primers used were (5′-3′): GAPDH-F: AGCCACATCGCTCAGACAC (SEQ ID NO:9), GAPDH-R: GCCCAATACGACCAAATCC (SEQ ID NO:10), ACTB-F: CCAACCGCGAGAAGATGA (SEQ ID NO:11), ACTB-R: […] (SEQ ID NO:12), SLC19A1-F: […] (SEQ ID NO:13), SLC19A1-R: […] (SEQ ID NO:14).
HeLa cells (1×104) were treated for 24 hours in 96 well plates with the compounds solubilized in DMSO. Compounds were added at 10 μM each and RNA expression measured by the Cells-to Ct method described above (Thermofisher).

In experiment [1] the target is T1, BRD4 (Homo sapiens, UniProt O60885). Put plainly: CURE-PRO-mediated BRD4 degradation in HeLa cells, Western blot. The experiment is classed as cell-based. More on the design: endogenous in cells; host or cells: HeLa. The following applies: 24 h. The method, then: (§1) All cell lines were purchased from ATCC or DSMZ and grown at 37° C. with 5% C02. Human HeLa cells were cultured in complete growth medium (Dulbecco's modified Eagle's medium (DMEM) supplemented with 10% FBS); MCF7 cells were cultured in complete growth medium (Dulbecco's modified Eagle's medium (DMEM) supplemented with 10% FBS and 0.01 mg/ml human recombinant insulin (Sigma Aldrich); Namalwa and MOLM-13 cells were cultured in complete growth medium (RPMI 1640 medium supplemented with 10% FBS); MV-4-11 were cultured in complete growth medium (Iscove's Modified Dulbecco's medium, supplemented with 10% FBS); HCT116 cells were cultured in complete growth medium (McCoy's 5a Medium supplemented with 10% FBS). For cellular degradation of BRD4 studies, cells were seeded in a 12-well plate at 70-80% confluency, allowed to attach overnight, and incubated with the indicated compounds for the indicated time. When indicated, a 15-minute pretreatment with 10 μM pomalidomide, 10 μM VHL298, 10 μM Nutlin3a, 1 μM MG-132 or 1 μM Carfilzomib was performed before the addition of CURE-PROs. For washout studies, after CURE-PRO treatment, media was aspirated and incubated with complete medium for the indicated time before lysis.
(§2) Anti-BRD4 (13440, 1:1,000 dilution for Western Blot and 1:25 dilution for ProteinSimple); Anti-BRD2 (5848 1:1,000 dilution for Western Blot and 1:25 dilution for ProteinSimple); β-Actin (3700, 1:2,000 dilution for Western Blot), β-Actin (4970, 1:50 dilution for ProteinSimple) anti-mouse IgG-HRP, and anti-rabbit IgG-HRP antibodies were purchased Cell Signaling Technology. Anti-GAPDH (600-401-A33, 1:100 dilution for ProteinSimple) was purchased from Rockland Immunochemicals, Inc. Anti-BRD3 (sc-81202, 1:200 dilution for Western Blot) was purchased from Santa Cruz Biotechnology.
HeLa, MCF7, or HCT116 cells (2.5-3×10^6) were treated for 24 hours with the indicated compounds solubilized in DMSO. The cells were washed in ice-cold PBS and were then lysed in RIPA lysis buffer (150 mM NaCl, 5 mM EDTA, 1% NP-40, 0.5% sodium deoxycholate, 0.1% SDS, 50 mM Tris, pH 8.0) with Roche protease inhibitor complete cocktail and phosphatase inhibitors (10 mM sodium fluoride, 10 mM sodium pyrophosphate, 1 mM sodium orthovanadate and 20 mM β-glycerophosphate). The total protein concentrations were determined by Bradford Protein Assay and 10-20 μg of protein was loaded onto 4-15% Tris-Glycine gradient gels (Biorad). After standard gel electrophoresis, the separated proteins were transferred to PVDF membrane by wet transfer. The immunoblots were then blocked for 1 hour in 5% skim milk in TBST or 5% BSA in TBST, according to manufacturer's instructions, before an overnight incubation at 4° C. with indicated antibodies and membranes. Membranes were then incubated with the appropriate horseradish peroxidase-conjugated secondary antibodies (1:5,000 dilution) for 1 h at room temperature and the bands were visualized using the Clarity Max Western ECL Substrate (Biorad) and the ChemiDoc Imaging System (Biorad). Signal was detected with ECL Western Blotting Substrate (Pierce) and X-ray film processed with a Konica SRX-101 X-ray film processor or captured by Bio-Rad's Chemidoc Imaging system.
HeLa cells (2.5×10^6) were treated for 24 hours with the sample compounds solubilized in DMSO. Compounds were added at 1-10 μM each. Standardized protein samples were electrophoresed and imaged as described in the immunoblotting description above. FIGS. 6-18 depicts the CURE-PRO-mediated BRD4 degradation for BRD monomers (JQ1 derivatives comprising of catechol linkers), and CRBN ligands, 8048 and 8049 (pomalidomide derivatives comprising boronic acid linkers) combined in a 1:1 ratio.
HeLa cells (2.5×10^6) were treated for 24 hours with the compounds solubilized in DMSO. The compounds were added at 10 μM each. Standardized protein samples were electrophoresed and imaged as described in the immunoblotting section above. […]

Experiment [2] addresses T1, BRD4. Put plainly: Summary of E3 ligase directed degradation of BRD4, estimated from Western Blot or WES (Tables 1-6). Type of experiment: cell-based. More on the design: endogenous in cells; host or cells: HeLa, MCF7 or HCT116. To be noted: for Degradation of BRD4, combination with CRBN ligand [drawing 422] / Degradation of BRD4, combination with CRBN ligand [drawing 397] / Degradation of BRD4, combination with CRBN ligand [drawing 421]: Table 1; for Degradation of BRD4, combination with CRBN ligand [drawing 422]: CRBN ligand drawn as drawing 422 (by the text apparently 8066); for Degradation of BRD4, combination with CRBN ligand [drawing 397]: aromatic 1,2-diol- or hindered cis-1,2-diol-containing CRBN ligand drawn as drawing 397 (by the text apparently 8046); for Degradation of BRD4, combination with MDM2 ligand [drawing 431]: aromatic 1,2-diol-containing MDM2 ligand drawn as drawing 431 (by the text apparently 8314); for Degradation of BRD4, combination with CRBN ligand [drawing 421]: CRBN ligand drawn as drawing 421 (by the text apparently 8047). A digest of the protocol:
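HeLa, MCF7 or HCT116 cells treated 24 h with compounds in DMSO, lysed in RIPA buffer; BRD4 levels read by Western blot (ECL detection) or capillary WES with HRP detection. Check mark denotes 30% to 70% or higher protein degradation.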

Experiment [3] concerns the target T1, BRD4. As to the kind of experiment: CURE-PRO-mediated BRD4 degradation in HeLa cells, WES capillary electrophoresis (ProteinSimple). The experiment is classed as cell-based. To be noted: 24 h, co-dosed with CRBN ligand 8047, 100 nM-10 μM each. Also noted: endogenous in cells; host or cells: HeLa. Here is the method:
as §1, §2
WES Simple analysis was performed on WES system (ProteinSimple-Biotechne) according to the manufacturer's instructions. Total protein concentrations of cell lysates were determined by the Pierce BCA kit (Thermo Fisher). 3 μL of 0.3 μg/uL of the protein lysate was loaded onto a 12- to 230-kDa WES assay plate (ProteinSimple) where 300 nL sample was withdrawn through a capillary, subjected to electrophoretic separation of proteins by size, and followed by the simultaneous, HRP-based detection of proteins using the Anti-Rabbit Detection Module (Proteinsimple: #DM-001). The electropherograms were checked then the automatic peak detection was manually corrected if it was required.
HeLa cells (2.5×10^6) were treated for 4-24 hours with the compounds solubilized in DMSO. After 4 hours, indicated points were washed and cells were left in full growth media. Compounds were added at 10 μM each. […]

Structures are written as SMILES.

As for `Cc1sc2c(c1C)C(c1ccc(Cl)cc1)=N[C@@H](CC(=O)Nc1ccc(OCCOCCOCCOCCNc3cccc4c3C(=O)N(C3CCC(=O)NC3=O)C4=O)cc1)c1nnc(C)n1-2` (stereo partly drawn) [ARV-825, reference compound], the “suppression of SLC19A1 expression” value with SLC19A1 is reported as “Complete suppression of SLC19A1 was evident”.
As for `COc1ccc2c(c1)C(c1ccc(Cl)cc1)=N[C@@H](CC(=O)NCCCCCNC(=O)c1cccc(B(O)O)c1)c1nnc(C)n1-2` [BRD-E08], the BRD4 degradation result at BRD4 [1] (BRD ligand (monomer) alone) is “no change in expression is observed”; on BRD4 [1] (co-treated 1:1 with CRBN ligand 8046, 10 μM each unless the value states a concentration, listed as BRD-E8), “Degradation is observed at 100 nM and 1 μM”. Also, at BRD4 [2], the “Degradation of BRD4, combination with CRBN ligand [drawing 422]” value (from here on “Degradation of BRD4 … [drawing 422]”) is reported as “✓ (A black check mark indicates efficacy of 30% to 70% or higher protein degradation)”. Further, the “Degradation of BRD4, combination with CRBN ligand [drawing 397]” value on BRD4 [2] was “✓ (A black check mark indicates efficacy of 30% to 70% or higher protein degradation)”. For the same molecule, the “Degradation of BRD4, combination with MDM2 ligand [drawing 431]” value on BRD4 [2] (Table 2) is reported as “✓ (A black check mark indicates efficacy of 30% to 70% or higher protein degradation)”.
As for `CCNC(=O)C[C@@H]1N=C(c2ccc(Cl)cc2)c2cc(OCCNC(=O)c3cccc(B(O)O)c3)ccc2-n2c(C)nnc21` [BRD-E21, (3-((2-(((4S)-6-(4-chlorophenyl)-4-(2-(ethylamino)-2-oxoethyl)-1-methyl-4H-benzo[f][1,2,4]triazolo[4,3-a][1,4]diazepin-8-yl)oxy)ethyl)carbamoyl)phenyl)boronic acid], the BRD4 degradation entry at BRD4 [1] (BRD ligand (monomer) alone) is “no change in expression is observed”. The “Degradation of BRD4, combination with CRBN ligand [drawing 421]” value (“Degradation of BRD4 … [drawing 421]” below) at BRD4 [2] is “✓ (A black check mark indicates efficacy of 30% to 70% or higher protein degradation)”. Moreover, the “Degradation of BRD4, combination with MDM2 ligand [drawing 431]” value on BRD4 [2] (Table 2) is on record as “✓ (A black check mark indicates efficacy of 30% to 70% or higher protein degradation)”.
Take `COc1ccc2c(c1)C(c1ccc(Cl)cc1)=N[C@@H](CC(=O)NCCNC(=O)/C=C/c1cccc(B(O)O)c1)c1nnc(C)n1-2` [BRD-E30, (3-((E)-3-((2-(2-((4S)-6-(4-chlorophenyl)-8-methoxy-1-methyl-4H-benzo[f][1,2,4]triazolo[4,3-a][1,4]diazepin-4-yl)acetamido)ethyl)amino)-3-oxoprop-1-en-1-yl)phenyl)boronic acid]: on BRD4 [1] (BRD ligand (monomer) alone), the BRD4 degradation entry was “no change in expression is observed”. At BRD4 [2], the “Degradation of BRD4 … [drawing 421]” value is reported as “✓ (A black check mark indicates efficacy of 30% to 70% or higher protein degradation)” and the “Degradation of BRD4 … [drawing 422]” value is “✓ (A black check mark indicates efficacy of 30% to 70% or higher protein degradation)”.
As for `CCNC(=O)C[C@@H]1N=C(c2ccc(Sc3ccccc3)cc2)c2cc(OC)ccc2-n2c(C)nnc21` [BRD-E52C, N-ethyl-2-((4S)-8-methoxy-1-methyl-6-(4-(phenylthio)phenyl)-4H-benzo[f][1,2,4]triazolo[4,3-a][1,4]diazepin-4-yl)acetamide], the BRD4 degradation result at BRD4 [3] is given as “failed to induce degradation even at 10 μM”.
With `CCNC(=O)C[C@@H]1N=C(c2ccc(Cl)cc2)c2cc(OCCCCCCNC(=O)c3ccc(B(O)O)cc3)ccc2-n2c(C)nnc21` [BRD-E79, (4-((6-(((4S)-6-(4-chlorophenyl)-4-(2-(ethylamino)-2-oxoethyl)-1-methyl-4H-benzo[f][1,2,4]triazolo[4,3-a][1,4]diazepin-8-yl)oxy)hexyl)carbamoyl)phenyl)boronic acid], the BRD4 degradation entry on BRD4 [1] (BRD ligand (monomer) alone) is “no change in expression is observed”. In addition, on BRD4 [2], the “Degradation of BRD4 … [drawing 421]” value is given as “✓ (A black check mark indicates efficacy of 30% to 70% or higher protein degradation)”; the “Degradation of BRD4 … [drawing 422]” value is reported as “✓ (A black check mark indicates efficacy of 30% to 70% or higher protein degradation)”; the “Degradation of BRD4, combination with CRBN ligand [drawing 397]” value was “✓ (A black check mark indicates efficacy of 30% to 70% or higher protein degradation)”. Besides, the “Degradation of BRD4, combination with MDM2 ligand [drawing 430]” value on BRD4 [2] (Table 2, aromatic 1,2-diol-containing MDM2 ligand drawn as drawing 430 (by the text apparently 8313)) is on record as “✓ (A black check mark indicates efficacy of 30% to 70% or higher protein degradation)”.

(Values after patent US20240000950A1, “THERAPEUTIC CURE-PRO COMPOUNDS FOR TARGETED DEGRADATION OF BET DOMAIN PROTEINS, AND METHODS OF MAKING AND USING THEM” (CORNELL UNIVERSITY, priority 2020, published 2024).)
